In patent publication US8337891B2, “Enteric coated composition comprising prostaglandin analogs as chloride channel opener” (Sucampo AG, priority 2003, dated 2012):

Experiments:
[1] = ratio of monocyclic/bicyclic tautomer in pH2 solvent by 1H-NMR; type: physicochemical
Description: The compound 1 (bicyclic structure, solid) was dissolved in D2O—CD3OD(1:1), which was adjusted to pH 2 with DCl. The ratio of monocyclic tautomer/bicyclic tautomer of compound 1 in the pH2 solvent was determined with ^1H-NMR.
According to the same manner described in the test example 2, the ratio of monocyclic tautomer/bicyclic tautomer of compound 2 in pH2 solvent was determined by ^1H-NMR.

[2] = tautomeric form of the solid compound; type: physicochemical; conditions: provided as a solid compound

CCCCC(F)(F)[C@@]1(O)CC[C@H]2[C@@H](CC(=O)[C@@H]2CCCCCCC(=O)O)O1 [Compound 1, 13,14-dihydro-15-keto-16,16-difluoro-PGE1]
Ratio of monocyclic tautomer (%) ([1]; D2O-CD3OD (1:1) adjusted to pH 2 with DCl, 1H-NMR, starting from solid bicyclic tautomer): 8.5%
compound converted into the monocyclic tautomer ([1]; pH2 solvent, bicyclic ring opened): more than 5%
proportion of the compound existing as the bicyclic structure [2]: ~100%
